The values that follow come from ChEMBL document CHEMBL1201862, “PubChem BioAssay data set” (2004).

Structures are written as SMILES.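 Each compound was tested at five concentrations against cells in 96-well plates for 48 hours. At the GI50, growth is halved.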 The source made the active and inactive calls. Cut-off read from the data, not from the text of the source: active = GI50 up to about 1.1 µM and inactive = higher. A value given as a limit tells only on which side of the number the result lay.

Among the test systems are PC-3; HL-60; K562; A549; 786-0; NCI/ADR-RES; OVCAR-4; HT-29; DU-145; COLO 205; CAKI-1; UACC-257; SF-268; UACC-62; OVCAR-8; HCC 2998; M14; SK-OV-3; TK-10.
Holding throughout (test): DTP human tumour cell line panel, 48 h

With `O=c1c2ccccc2n2c(-c3ccccc3O)nnc2n1-c1ccccc1`, the GI50 in the test on PC-3, in the test on HL-60, in the test on K562, in the test on A549, with 786-0 and with NCI/ADR-RES was > 100 µM (inactive) in each case. For the same compound, the GI50 in the test on OVCAR-4, in the test with HT-29, in the test with DU-145, in the test on COLO 205, in the test with CAKI-1 and in the test with UACC-257 was > 100 µM (inactive) each time. Also, the GI50 in the test on SF-268, in the test with UACC-62, with OVCAR-8, in the test on HCC 2998, with M14 and in the test on SK-OV-3 was > 100 µM (inactive) each time. The GI50 in the test on TK-10 was > 100 µM (inactive).

Turning to `C=C1CC[C@H](O)C(C)(C)[C@@H]1CC/C(C)=C/CC/C=C(\C)CC/C=C(\C)CCC=C(C)C`, the GI50 is > 100 µM (inactive) in the test with PC-3; 13.5 µM (inactive) in the test with HL-60; > 100 µM (inactive) in the test with K562; > 100 µM (inactive) in the test with A549; > 100 µM (inactive) with 786-0; > 100 µM (inactive) in the test on NCI/ADR-RES. For the same compound, the GI50 with OVCAR-4, with HT-29, in the test with DU-145, in the test with COLO 205, in the test with CAKI-1 and with UACC-257 was > 100 µM (inactive) throughout. Besides, the GI50 in the test on SF-268 is > 100 µM (inactive); with UACC-62 it was > 100 µM (inactive); in the test on OVCAR-8, 57.8 µM (inactive); in the test with HCC 2998, 76.6 µM (inactive); in the test on M14, > 100 µM (inactive); in the test on SK-OV-3, > 100 µM (inactive). Besides, the GI50 in the test on TK-10 was > 100 µM (inactive).

In the case of `CNC(=O)c1cc2nc3ccccc3c(=O)n2c2ccccc12`, the GI50 in the test on PC-3, in the test with HL-60, in the test on K562, in the test on A549, in the test on 786-0 and in the test with NCI/ADR-RES was > 10 µM (inactive) in each case. For the same compound, the GI50 in the test on OVCAR-4, with HT-29, in the test with DU-145, in the test on COLO 205, in the test on CAKI-1 and in the test on UACC-257 was > 10 µM (inactive) in each case. Moreover, the GI50 with SF-268, in the test on UACC-62, in the test with OVCAR-8, in the test with HCC 2998, in the test with M14 and with SK-OV-3 was > 10 µM (inactive) throughout. Besides, the GI50 in the test with TK-10 is > 10 µM (inactive).

Regarding `CN(CCCNC(=O)c1cn(C)c2c1ccc1cc(Cl)ccc12)CCCNC(=O)c1cn(C)c2c1ccc1cc(Cl)ccc12`, the GI50 with PC-3 is 1.78 µM (inactive); with HL-60 it was 0.914 µM (active); in the test with K562 it was 1.97 µM (inactive); in the test with A549, 2.06 µM (inactive); in the test with 786-0 it was 1.65 µM (inactive); in the test on NCI/ADR-RES, 2.16 µM (inactive). Moreover, the GI50 is 2.52 µM (inactive) in the test on OVCAR-4; 2.05 µM (inactive) with HT-29; 1.89 µM (inactive) in the test with DU-145; 1.47 µM (inactive) in the test on COLO 205; 2.3 µM (inactive) in the test with CAKI-1; 2.19 µM (inactive) in the test with UACC-257. Further, the GI50 was 1.72 µM (inactive) in the test on SF-268; 1.84 µM (inactive) in the test with UACC-62; 1.82 µM (inactive) in the test with OVCAR-8; 1.2 µM (inactive) in the test on HCC 2998; 1.85 µM (inactive) in the test on M14; 1.82 µM (inactive) in the test with SK-OV-3. Also, the GI50 with TK-10 is 2.47 µM (inactive).
